The subject of data set [1] is H3K27me3 mark in MDA-MB-231 cells. The experiment in a line: High content analysis (HCA) of cellular H3K27me3 mark, washout format. The data set is classed as cell-based. The note with it: for pIC50: H3K27 methylation HCA, read-out: Mean IC50. On the procedure: In the low- and high-signal control wells, test compounds were replaced by 10 µM of EZH2 inhibitor (equal to unlabeled probe from ePCA and kPCA) or DMSO, respectively. […] After fixation, the cells were washed with PBS and incubated with 1% BSA blocking solution at RT for 1 h. Blocking solution was discarded, primary monoclonal antibody rabbit Tri-methyl-histone H3K27 (C36B11, Cell signaling) diluted 1:200 in blocking solution was added and incubated overnight at 4 °C. […] Afterwards, cells were washed three times with PBS and incubated at 4 °C until measuring. Fluorescence signals were captured by an Opera Phenix™ High Content Screening (HCA) system (Perkin Elmer) by 10× magnification. […] Microscopy images were initially visualized and preprocessed with MetaXpress High Content Image Acquisition & Analysis Software (Molecular Devices) as previously described. Raw data import, normalization, quality control and fitting curves for IC50 determination of tested compounds were done with Genedata Screener® for high-content screening. Wells with no recognizable signals were masked and the average intensity of the trimethylation signal was normalized to the DMSO control (0%).

The next data set relates to KARPAS-422 cells. As to the kind of experiment: Cellular proliferation assay (AlamarBlue, 144 h). The data set is classed as cell-based. As to conditions: KARPAS-422 cells, 6-day (144 h), AlamarBlue; read-out: KARPAS (6-day) Anti-proliferation IC50. How it is done: Cell viability was determined by means of the AlamarBlue® reagent (Thermo Fisher Scientific) following instructions from the manufacturer. […] Anti-proliferative IC50s were calculated by fitting the normalized AlamarBlue® fluorescence values to a 4-parameter logistic equation using the Electronic Notebook (ELN) software from IDBS.
For orientation: Resazurin is reduced to fluorescent resorufin, in cell work by metabolically active cells.

Data set [2] concerns the target T1, PRC2/EZH2+/+ (Homo sapiens, UniProt Q15910).
T1 construct: purchased Active Motif
The experiment in a line: Kinetic probe competition assay (kPCA), TR-FRET. It is filed as binding. On the procedure: (§1) Biotinylated PRC2 complexes and the fluorescent probe used in TR-FRET assays were generated as described in the supplementary methods section.
For measurements at 25, 30 and 37 °C, the temperature control functionality of the instrument was used.
TR-FRET kPCA traces were exported via Microsoft Excel to GraphPad Prism, where non-specific signals were subtracted and kinetic association competition traces were fitted to the Motulsky–Mahan model “kinetics of competitive binding” to obtain kon (k3), koff (k4) and KD parameters.
(In general: Time-resolved FRET reads energy transfer from a long-lived donor to a nearby acceptor.)

The target in data set [3] is T1, PRC2/EZH2+/+. As to the kind of experiment: Equilibrium binding thermodynamics (van't Hoff analysis of ePCA/kPCA at 5-37 °C). As to conditions: ePCA at 5-37 °C, wild type EZH2. How it is done:
For thermodynamic analysis of the binding to EZH2+/+ the probe characterization, equilibrium and kinetic probe competition assays described above (previously conducted at 25 °C) were performed at 5, 15, 30 and 37 °C. […] For measurements at 25, 30 and 37 °C, the temperature control functionality of the instrument was used.
Equilibrium and kinetic binding constants obtained at various temperatures were used to determine the thermodynamic parameters by van’t Hoff and Eyring analysis, as described elsewhere for SPR and radioligand binding experiments[46],[69]. For the van’t Hoff thermodynamic analysis, changes in entropy ΔS° and enthalpy ΔH° were estimated by linear regression using the van’t Hoff equation. lnKA=ΔS^∘/R-ΔH^∘/RT,
Changes in Gibb’s free energy ΔG° were calculated according to. ΔG^∘T=ΔH^∘-T×ΔS^∘
Additionally, the possible temperature dependence of the thermodynamic parameters was considered using the integrated form of the van’t Hoff equation[47] for nonlinear regression to yield the changes in entropy, enthalpy, and heat capacity ΔCp: ln KA=-ΔH^∘T^∘/RT+ΔS^∘T^∘/R+ΔCp/R[T-T^∘/T-lnT/T^∘],

The next data set can be described thus: in vitro. It is filed as in vitro ADME. As to conditions: 2 µM, 2 h, 37 °C, basolateral to apical. How it is done: Cells were kept at 37 °C in a humidified 5% CO2 atmosphere. Before the permeation assay was run, the culture medium was replaced by an FCS-free HEPES carbonate transport buffer (pH 7.2). For assessment of monolayer integrity, the transepithelial electrical resistance was measured. Test compounds were pre-dissolved in DMSO and added either to the apical or basolateral compartment at a final concentration of 2 µM. Before and after 2 h incubation at 37 °C, samples were taken from both compartments. Analysis of compound content was conducted after precipitation with methanol by LC/MS/MS analysis. Reference compounds were analyzed in parallel as assay control. Permeability (Papp) was calculated in the apical to basolateral (A → B) and basolateral to apical (B → A) directions. The efflux ratio basolateral (B) to apical (A) was calculated by dividing Papp B–A by Papp A–B.

In the next data set the target is T2, PRC2/EZH2Y641N (Homo sapiens, UniProt Q15910, Y641N).
T2 construct: Synthetic cDNA encoding N-terminal 6His-tagged full length EZH2^Y641N; 6His (N); made in house; host or cells: Sf9 insect cells (baculovirus co-infection)
The experiment in a line: Kinetic probe competition assay (kPCA), TR-FRET. It is filed as binding. The note with it: calculated.
Excerpt: as §1

In another data set the target is T3, PRC2/EZH1 (Homo sapiens, UniProt Q92800).
T3 construct: N-terminal 6His-tagged full length EZH2^Y641N, EZH2^Y111L, EZH2^Y111D, EZH2^Y641N, Y661DEZH2, EZH1; 6His (N); made in house; host or cells: Sf9 insect cells (baculovirus co-infection)
As to the kind of experiment: Scintillation proximity assay (SPA) of H3K27 methylation. The data set is classed as biochemical. How it is done:
Assay-ready plates containing 50 nl of compound dilutions and DMSO controls were filled with 2.5 µL enzyme solution and pre-incubated for 15 min. […] Experiments were also performed without pre-incubation of enzyme and compounds. In this case, the substrate solution was added before enzyme. The reaction was stopped using 1.6 µg/µl streptavidin beads (Perkin Elmer) and 700 µM of SAM (Perkin Elmer). The plates were sealed with transparent foil.
For equilibrium binding competition (ePCA) and SPA enzyme inhibition assays, raw data import, quality control, normalization, and curve fitting to a 4-parameter logistic equation for IC50 determination were performed using the Genedata Screener® software (Genedata AG). ePCA Ki values were either calculated using the Cheng-Prussof equation[68] or with the GraphPad Prism model “One-site—Fit Ki”.

pIC50: −log10 of the molar value. Like-named read-outs stand apart in the source and are kept apart here.

What is called IC50 is the concentration that gives 50% inhibition. For the compound `CC[C@H](C)n1cc(C)c2c(C(=O)NCc3c(C)cc(C)[nH]c3=O)cc(-c3ccc(N4CCNCC4)nc3)cc21` [Compound 4, GSK126], the pIC50 was 5.24 in data set [1] (incubation time 0.5 h, washout time 71.5 h); 5.54 in data set [1] (incubation time 1 h, washout time 71 h); 5.62 in data set [1] (incubation time 2 h, washout time 70 h); 5.74 in data set [1] (incubation time 4 h, washout time 68 h); 5.85 in data set [1] (incubation time 24 h, washout time 48 h); 6.15 in data set [1] (incubation time 48 h, washout time 24 h). The pIC50 in data set [1] (incubation time 72 h, washout time 0 h) was 6.51; in the data set on KARPAS-422 cells, 6.55. Moreover, the “AUC (a.u.)” value in data set [1] (HCA H3K27 methylation washout pIC50 AUC over all incubation/washout times) turned out to be 81.2 a.u. In addition, the “Calculated RT” value on PRC2/EZH2+/+ [2] (EZH2+/+ (+ H3K27me3)) is 0.44 h; on PRC2/EZH2+/+ [2] (EZH2+/+ (- H3K27me3)), 0.06 h; at PRC2/EZH2Y641N (EZH2Y641N (+ H3K27me3)), 0.22 h; at PRC2/EZH2Y641N (EZH2Y641N (- H3K27me3)), 0.0666 h. The “RT (Calculated)” value on PRC2/EZH2+/+ [2] (EZH2+/+ (- H3K27me3), 15 °C) is 0.0145 h; at PRC2/EZH2+/+ [2] (EZH2+/+ (- H3K27me3), 30 °C), 0.031 h; at PRC2/EZH2+/+ [2] (EZH2+/+ (- H3K27me3), 37 °C), 0.0092 h. In addition, at PRC2/EZH2+/+ [3], the “binding driving force, polynomial van't Hoff analysis” value is “entropy-driven”. In addition, the “PK Caco-2 Flux Papp B-A (mean)” value in “in vitro” was determined as 9.838 ×10⁻⁶ cm/s. In addition, the IC50 stood at 1.1e-06 M on PRC2/EZH1 (0' enzyme:inhibitor pre-incubation, read-out: SPA Mean IC50 (M) - 0' enzyme:inhibitor pre-incubation EZH1); 4.4e-07 M on PRC2/EZH1 (15' enzyme:inhibitor pre-incubation, read-out: SPA Mean IC50 (M) - 15' enzyme:inhibitor pre-incubation EZH1); 1e-06 M at PRC2/EZH1 (60' enzyme:inhibitor pre-incubation, read-out: SPA Mean IC50 (M) - 60' enzyme:inhibitor pre-incubation EZH1).

Source of the values: article PMC10799085, “A miniaturized mode-of-action profiling platform enables high throughput characterization of the molecular and cellular dynamics of EZH2 inhibition” (Scientific Reports, 2024).
